The supplement of paper PMC11208160

Assay: recombinant UMI read abundance after kanamycin selection (control-corrected) (log10(CPM+1)); higher = more efficient recombination; extreme values may be limits of the assay; sequences stand for … in AGTGCAGAGAAAATCGGCCAGTTTTCTCTGCCTGCAGTCCGCATGCCGTGGGACCCCTTGGGTTCTAACCTGTTGCCTAGATTTATGCAGCGGACTGCCTTTCTCCCAAAGTGATAAACCGG…AGGTTGGTTTCACT; site = the 11-nt donor
Summary of the method: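 Values are reported as log10(CPM+1), obtained by converting sequencing counts to CPM, averaging replicates and scaling by control-derived factors. The counts came from recombinant UMIs amplified by PCR across the donor–target junction. These UMIs came from a pooled Escherichia coli screen of donor and donor-binding-loop pairs for the IS621 bridge recombinase, plated with IPTG (0.07 mM) plus kanamycin or left unselected, in two replicates each.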
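Also: IS621 bridge recombinase in Escherichia coli cells against a fixed T5 target plasmid.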

Row | Sequence | recombinant UMI read abundance (log10)
1 | CTAGTATCATGGACCGGTTTTCCCGGTAATCCGTATTTGAC (site CCAGTAGCTGT) | 0
2 | CTAGTATCATGGACCGGTTTTCCCGGTAATCCGTATTTGAC (site CCAGTATCTGG) | 0
3 | CTAGTATCATGGACCGGTTTTCCCGGTAATCCGTATTTGAC (site CCAGTATCTGT) | 2.69
4 | CTAGTATCATGGACCGGTTTTCCCGGTAATCCGTATTTGAC (site CCAGTATCTTT) | 0.412
5 | CTAGTATCATGGACCGGTTTTCCCGGTAATCCGTATTTGAC (site CCAGTTTCTGT) | 0
6 | CTAGTATCATGGACCGGTTTTCCCGGTAATCCGTATTTGAC (site CCGGTATCTGT) | 0.281
7 | CTAGTATCATGGACCGGTTTTCCCGGTAATCCGTATTTGAC (site CGAGGATCTGT) | 0
8 | CTAGTATCATGGACCGGTTTTCCCGGTAATCCGTATTTGAC (site CGAGTACCTGT) | 0
9 | CTAGTATCATGGACCGGTTTTCCCGGTAATCCGTATTTGAC (site CGAGTATCTAT) | 0
10 | CTAGTATCATGGACCGGTTTTCCCGGTAATCCGTATTTGAC (site CGAGTATCTGC) | 0
11 | CTAGTATCATGGACCGGTTTTCCCGGTAATCCGTATTTGAC (site CGAGTATCTGT) | 0.849
12 | CTAGTATCATGGACCGGTTTTCCCGGTAATCCGTATTTGAC (site CGAGTGTCTGT) | 0
13 | CTAGTATCATGGACCGGTTTTCCCGGTAATCCGTATTTGAC (site CGATTATCTGT) | 0
14 | CTAGTATCATGGACCGGTTTTCCCGGTAATCCGTATTTGAC (site CGTGTATCTGT) | 0
15 | CTAGTATCATGGACCGGTTTTCCCGGTAATCCGTATTTGAC (site CTAAAATCTGT) | 0
16 | CTAGTATCATGGACCGGTTTTCCCGGTAATCCGTATTTGAC (site CTAATAACTGT) | 0
17 | CTAGTATCATGGACCGGTTTTCCCGGTAATCCGTATTTGAC (site CTAATATCTCT) | 0.764
18 | CTAGTATCATGGACCGGTTTTCCCGGTAATCCGTATTTGAC (site CTAATATCTGA) | 0
19 | CTAGTATCATGGACCGGTTTTCCCGGTAATCCGTATTTGAC (site CTAATATCTGT) | 1.63
20 | CTAGTATCATGGACCGGTTTTCCCGGTAATCCGTATTTGAC (site CTAATCTCTGT) | 0
21 | CTAGTATCATGGACCGGTTTTCCCGGTAATCCGTATTTGAC (site CTACCATCTGT) | 0
22 | CTAGTATCATGGACCGGTTTTCCCGGTAATCCGTATTTGAC (site CTACTAGCTGT) | 0
23 | CTAGTATCATGGACCGGTTTTCCCGGTAATCCGTATTTGAC (site CTACTATCTGG) | 0
24 | CTAGTATCATGGACCGGTTTTCCCGGTAATCCGTATTTGAC (site CTACTATCTGT) | 0.925
25 | CTAGTATCATGGACCGGTTTTCCCGGTAATCCGTATTTGAC (site CTACTATCTTT) | 0.0334

Row | Sequence | recombinant UMI read abundance (log10)
26 | CTAGTATCATGGACCGGTTTTCCCGGTAATCCGTATTTGAC (site CTACTTTCTGT) | 0
27 | CTAGTATCATGGACCGGTTTTCCCGGTAATCCGTATTTGAC (site CTAGAAACTGT) | 0
28 | CTAGTATCATGGACCGGTTTTCCCGGTAATCCGTATTTGAC (site CTAGAATCTCT) | 0
29 | CTAGTATCATGGACCGGTTTTCCCGGTAATCCGTATTTGAC (site CTAGAATCTGA) | 0
30 | CTAGTATCATGGACCGGTTTTCCCGGTAATCCGTATTTGAC (site CTAGAATCTGT) | 0.992
31 | CTAGTATCATGGACCGGTTTTCCCGGTAATCCGTATTTGAC (site CTAGACTCTGT) | 0
32 | CTAGTATCATGGACCGGTTTTCCCGGTAATCCGTATTTGAC (site CTAGCAGCTGT) | 0
33 | CTAGTATCATGGACCGGTTTTCCCGGTAATCCGTATTTGAC (site CTAGCATCTGG) | 0
34 | CTAGTATCATGGACCGGTTTTCCCGGTAATCCGTATTTGAC (site CTAGCATCTGT) | 1.59
35 | CTAGTATCATGGACCGGTTTTCCCGGTAATCCGTATTTGAC (site CTAGCATCTTT) | 0.0133
36 | CTAGTATCATGGACCGGTTTTCCCGGTAATCCGTATTTGAC (site CTAGCTTCTGT) | 0
37 | CTAGTATCATGGACCGGTTTTCCCGGTAATCCGTATTTGAC (site CTAGGACCTGT) | 0
38 | CTAGTATCATGGACCGGTTTTCCCGGTAATCCGTATTTGAC (site CTAGGATCTAT) | 0.00421
39 | CTAGTATCATGGACCGGTTTTCCCGGTAATCCGTATTTGAC (site CTAGGATCTGC) | 0
40 | CTAGTATCATGGACCGGTTTTCCCGGTAATCCGTATTTGAC (site CTAGGATCTGT) | 0.927
41 | CTAGTATCATGGACCGGTTTTCCCGGTAATCCGTATTTGAC (site CTAGGGTCTGT) | 0
42 | CTAGTATCATGGACCGGTTTTCCCGGTAATCCGTATTTGAC (site CTAGTAACTCT) | 0.0077
43 | CTAGTATCATGGACCGGTTTTCCCGGTAATCCGTATTTGAC (site CTAGTAACTGA) | 0
44 | CTAGTATCATGGACCGGTTTTCCCGGTAATCCGTATTTGAC (site CTAGTAACTGT) | 1.82
45 | CTAGTATCATGGACCGGTTTTCCCGGTAATCCGTATTTGAC (site CTAGTACCTAT) | 0.00604
46 | CTAGTATCATGGACCGGTTTTCCCGGTAATCCGTATTTGAC (site CTAGTACCTGC) | 0
47 | CTAGTATCATGGACCGGTTTTCCCGGTAATCCGTATTTGAC (site CTAGTACCTGT) | 0
48 | CTAGTATCATGGACCGGTTTTCCCGGTAATCCGTATTTGAC (site CTAGTAGCTGG) | 0
49 | CTAGTATCATGGACCGGTTTTCCCGGTAATCCGTATTTGAC (site CTAGTAGCTGT) | 0
50 | CTAGTATCATGGACCGGTTTTCCCGGTAATCCGTATTTGAC (site CTAGTAGCTTT) | 0.0305

Row | Sequence | recombinant UMI read abundance (log10)
51 | CTAGTATCATGGACCGGTTTTCCCGGTAATCCGTATTTGAC (site CTAGTATCTAC) | 0.564
52 | CTAGTATCATGGACCGGTTTTCCCGGTAATCCGTATTTGAC (site CTAGTATCTAT) | 2.78
53 | CTAGTATCATGGACCGGTTTTCCCGGTAATCCGTATTTGAC (site CTAGTATCTCA) | 0.333
54 | CTAGTATCATGGACCGGTTTTCCCGGTAATCCGTATTTGAC (site CTAGTATCTCT) | 1.67
55 | CTAGTATCATGGACCGGTTTTCCCGGTAATCCGTATTTGAC (site CTAGTATCTGA) | 1.14
56 | CTAGTATCATGGACCGGTTTTCCCGGTAATCCGTATTTGAC (site CTAGTATCTGC) | 2.62
57 | CTAGTATCATGGACCGGTTTTCCCGGTAATCCGTATTTGAC (site CTAGTATCTGG) | 1.48
58 | CTAGTATCATGGACCGGTTTTCCCGGTAATCCGTATTTGAC (site CTAGTATCTGT) | 2.66
59 | CTAGTATCATGGACCGGTTTTCCCGGTAATCCGTATTTGAC (site CTAGTATCTTG) | 0.0198
60 | CTAGTATCATGGACCGGTTTTCCCGGTAATCCGTATTTGAC (site CTAGTATCTTT) | 2.1
61 | CTAGTATCATGGACCGGTTTTCCCGGTAATCCGTATTTGAC (site CTAGTCACTGT) | 0
62 | CTAGTATCATGGACCGGTTTTCCCGGTAATCCGTATTTGAC (site CTAGTCTCTCT) | 0.0131
63 | CTAGTATCATGGACCGGTTTTCCCGGTAATCCGTATTTGAC (site CTAGTCTCTGA) | 0
64 | CTAGTATCATGGACCGGTTTTCCCGGTAATCCGTATTTGAC (site CTAGTCTCTGT) | 1.18
65 | CTAGTATCATGGACCGGTTTTCCCGGTAATCCGTATTTGAC (site CTAGTGCCTGT) | 0
66 | CTAGTATCATGGACCGGTTTTCCCGGTAATCCGTATTTGAC (site CTAGTGTCTAT) | 0.00843
67 | CTAGTATCATGGACCGGTTTTCCCGGTAATCCGTATTTGAC (site CTAGTGTCTGC) | 0
68 | CTAGTATCATGGACCGGTTTTCCCGGTAATCCGTATTTGAC (site CTAGTGTCTGT) | 2.01
69 | CTAGTATCATGGACCGGTTTTCCCGGTAATCCGTATTTGAC (site CTAGTTGCTGT) | 0
70 | CTAGTATCATGGACCGGTTTTCCCGGTAATCCGTATTTGAC (site CTAGTTTCTGG) | 0
71 | CTAGTATCATGGACCGGTTTTCCCGGTAATCCGTATTTGAC (site CTAGTTTCTGT) | 0
72 | CTAGTATCATGGACCGGTTTTCCCGGTAATCCGTATTTGAC (site CTAGTTTCTTT) | 0
73 | CTAGTATCATGGACCGGTTTTCCCGGTAATCCGTATTTGAC (site CTATGATCTGT) | 0
74 | CTAGTATCATGGACCGGTTTTCCCGGTAATCCGTATTTGAC (site CTATTACCTGT) | 0
75 | CTAGTATCATGGACCGGTTTTCCCGGTAATCCGTATTTGAC (site CTATTATCTAT) | 0
